pIC50: −log10 of the molar value.

What is called pIC50 is the IC50 on a negative log10 scale, so that one unit is a factor of ten. Lower therefore signals a high IC50.

Assay [1] concerns the target T1, human 15-PGDH (Homo sapiens, UniProt P15428).
T1 construct: purchased R&D System 5660-DH
T1 sequence (P15428 1-266): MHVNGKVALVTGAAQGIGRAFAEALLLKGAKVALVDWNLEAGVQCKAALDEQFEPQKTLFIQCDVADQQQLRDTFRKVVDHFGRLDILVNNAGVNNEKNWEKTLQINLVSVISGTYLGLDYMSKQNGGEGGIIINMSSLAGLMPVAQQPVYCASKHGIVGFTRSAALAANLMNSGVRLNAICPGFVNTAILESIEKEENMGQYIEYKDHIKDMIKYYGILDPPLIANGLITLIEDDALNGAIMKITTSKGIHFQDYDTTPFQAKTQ
The experiment in a line: Evaluation of 15-PGDH inhibitory activity (fluorescence enzyme assay, NAD+/PGE2). Format: biochemical. Conditions: human 15-PGDH enzyme, fluorescence Vmax. As for the experimental part:
15-PGDH inhibition activity of Example compounds was measured as follows. 6.7 ng of human 15-PGDH (R&D System# 5660-DH) enzyme (10 µL) was added to a black 96 well plate, 60 µL of buffer (50 mM Tris-HCl, pH 7.5, 0.01% Tween 20) was added, and 10 µL of 200 µM β-Nicotinamide adenine dinucleotide sodium salt (Sigma, Cat# N0632-5G) was added. 10 µL of (10x) compound solution in DMSO was added and reacted for 10 minutes at room temperature.

In assay [2] the test system is A549 cells. The assay can be described thus: Measurement of PGE2-increasing activity in A549 cells (IL-1β stimulated, PGE2 quantified in supernatant). Format: cell-based. Conditions: Homo sapiens, 24 h; concentration of 1 µM of each compound; IL-1β treated A549 cells; read-out: Increased PGE2 production in A549 cells. The procedure, abridged:
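A549 cells grown 24 h in F12K with 10% FBS, then switched to serum-free medium with or without IL-1β and compound (0.1% DMSO final). After 24 h at 37 °C, 5% CO2, supernatant PGE2 quantified by immunoassay.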

Turning to `O=C(c1cnn2c(-c3cnn(Cc4ncon4)c3)cccc12)N1CCCCC1` [Example 395, (7-(1-((1,2,4-oxadiazol-3-yl)methyl)-1H-pyrazol-4-yl)pyrazolo[1,5-a]pyridin-3-yl)(piperidin-1-yl)methanone], the pIC50 in assay [1] is ≥ 7.00. The fold induction at 1 µM in assay [2] was > 1.5.

On to `O=C(c1cnn2c(Nc3cc(=O)[nH]cn3)cccc12)N1CCCCC1` [Example 235, 4-[[3-(piperidine-1-carbonyl)pyrazolo[1,5-a]pyridin-7-yl]amino]-1H-pyrimidin-6-one], for which the pIC50 in assay [1] is ≥ 7.00. Further, in assay [2], the fold induction at 1 µM is > 1.5.

Regarding `Cc1nnc(-c2ccc(-c3cccc4c(C(=O)N5CCCCC5)cnn34)cn2)o1` [Example 364, [7-[6-(5-methyl-1,3,4-oxadiazol-2-yl)-3-pyridyl]pyrazolo[1,5-a]pyridin-3-yl]-(1-piperidyl)methanone], the pIC50 in assay [1] was ≥ 7.00. In addition, the fold induction at 1 µM in assay [2] was > 1.5.

On to `COCCC(=O)Nc1ccc(-c2cccc3c(C(=O)N4CCCCC4)cnn23)cc1` [Example 98, 3-methoxy-N-(4-(3-(piperidine-1-carbonyl)pyrazolo[1,5-a]pyridin-7-yl)phenyl)propanamide], for which the pIC50 in assay [1] was ≥ 7.00. Besides, in assay [2], the fold induction at 1 µM is > 1.5.

`O=C(Cc1ccc(C(F)(F)F)nc1)Nc1ccc(-c2cccc3c(C(=O)N4CCCCC4)cnn23)cn1` [Example 408, N-[5-[3-(piperidine-1-carbonyl)pyrazolo[1,5-a]pyridin-7-yl]-2-pyridyl]-2-[6-(trifluoromethyl)-3-pyridyl]acetamide]: in assay [1], the pIC50 is ≥ 7.00. Besides, the fold induction at 1 µM in assay [2] is > 1.5.

`O=C(c1cnn2c(-c3ccc(Cl)nc3)cccc12)N1CCCCC1` [Example 314, (7-(6-chloropyridin-3-yl)pyrazolo[1,5-a]pyridin-3-yl)(piperidin-1-yl)methanone]: in assay [1], the negative-log IC50 (pIC50) is ≥ 7.00. Further, the fold induction at 1 µM in assay [2] was > 1.5.

Turning to `CNC(=O)c1cncc(-c2cccc3c(C(=O)N4CCCCC4)cnn23)c1` [Example 40, N-methyl-5-(3-(piperidine-1-carbonyl)pyrazolo[1,5-a]pyridin-7-yl)nicotinamide], the pIC50 in assay [1] is ≥ 7.00. Moreover, the fold induction at 1 µM in assay [2] was > 1.5.

On to `Cc1nc(-c2ncc(-c3cccc4c(C(=O)N5CCCCC5)cnn34)cn2)no1` [Example 317, [7-[2-(5-methyl-1,2,4-oxadiazol-3-yl)pyrimidin-5-yl]pyrazolo[1,5-a]pyridin-3-yl]-(1-piperidyl)methanone], for which, in assay [1], the pIC50 is ≥ 7.00. In assay [2], the fold induction at 1 µM is > 1.5.

Turning to `O=C(Cc1cncnc1)Nc1ccc(-c2cccc3c(C(=O)N4CCCCC4)cnn23)cn1` [Example 407, N-[5-[3-(piperidine-1-carbonyl)pyrazolo[1,5-a]pyridin-7-yl]-2-pyridyl]-2-pyrimidin-5-yl-acetamide], the pIC50 in assay [1] was ≥ 7.00. Also, the fold induction at 1 µM in assay [2] was > 1.5.

Turning to `CN1Cc2ccc(-c3cccc4c(C(=O)N5CCC(F)CC5)cnn34)cc2C1=O` [Example 231, 6-(3-(4-fluoropiperidine-1-carbonyl)pyrazolo[1,5-a]pyridin-7-yl)-2-methylisoindolin-1-one], the pIC50 in assay [1] is ≥ 7.00. Further, the fold induction at 1 µM in assay [2] was > 1.5.

Regarding `O=C(Cc1cccnc1)Nc1ncc(-c2cccc3c(C(=O)N4CCCCC4)cnn23)cc1Cl` [Example 311, N-(3-chloro-5-(3-(piperidine-1-carbonyl)pyrazolo[1,5-a]pyridin-7-yl)pyridin-2-yl)-2-(pyridin-3-yl)acetamide], the pIC50 in assay [1] is ≥ 7.00. In assay [2], the fold induction at 1 µM is > 1.5.

With `O=C(c1cnn2c(-c3ccc(-c4ccoc4)cc3)cccc12)N1CCCCC1` [Example 302, [7-[4-(3-furyl)phenyl]pyrazolo[1,5-a]pyridin-3-yl]-(1-piperidyl)methanone], the pIC50 in assay [1] was ≥ 7.00. Further, the fold induction at 1 µM in assay [2] was < 1.5.

With `Cn1cnc2cc(-c3cccc4c(C(=O)N5CCCCC5)cnn34)ccc2c1=O` [Example 251, 3-methyl-7-(3-(piperidine-1-carbonyl)pyrazolo[1,5-a]pyridin-7-yl)quinazolin-4(3H)-one], the pIC50 in assay [1] is ≥ 7.00. Besides, in assay [2], the fold induction at 1 µM is > 1.5.

Turning to `O=C(c1cncc(-c2cccc3c(C(=O)N4CCCCC4)cnn23)c1)N1CCC1` [Example 41, azetidin-1-yl(5-(3-(piperidine-1-carbonyl)pyrazolo[1,5-a]pyridin-7-yl)pyridin-3-yl)methanone], in assay [1], the negative-log IC50 (pIC50) was ≥ 7.00. For the same compound, the fold induction at 1 µM in assay [2] was > 1.5.

On to `CCC1CCCN(C(=O)c2cnn3c(-c4ccc(F)nc4)cccc23)C1` (stereo not shown) [Example 337, (3-ethylpiperidin-1-yl)(7-(6-fluoropyridin-3-yl)pyrazolo[1,5-a]pyridin-3-yl)methanone], for which the pIC50 in assay [1] was ≥ 7.00. The fold induction at 1 µM in assay [2] is > 1.5.

`O=C(c1cnn2c(-c3ccc(F)nc3)cccc12)N1CCCCC1` [Example 19, (7-(6-fluoropyridin-3-yl)pyrazolo[1,5-a]pyridin-3-yl)(piperidin-1-yl)methanone]: the pIC50 in assay [1] is ≥ 7.00. Further, the fold induction at 1 µM in assay [2] was > 1.5.

Consider `O=C(c1cnn2c(-c3ccc4cc[nH]c(=O)c4c3)cccc12)N1CCCCC1` [Example 134, 7-(3-(piperidine-1-carbonyl)pyrazolo[1,5-a]pyridin-7-yl)isoquinolin-1(2H)-one], for which the pIC50 in assay [1] was ≥ 7.00. In addition, the fold induction at 1 µM in assay [2] was > 1.5.

For the compound `O=C(NCC1CC1)c1cccc(-c2cccc3c(C(=O)N4CCCCC4)cnn23)c1` [Example 32, N-(cyclopropylmethyl)-3-(3-(piperidine-1-carbonyl)pyrazolo[1,5-a]pyridin-7-yl)benzamide], the pIC50 in assay [1] was ≥ 7.00. Also, the fold induction at 1 µM in assay [2] was < 1.5.

`O=C(c1ccc(-c2cccc3c(C(=O)N4CCCCC4)cnn23)cn1)N1CCNCC1` [Example 82, piperazin-1-yl(5-(3-(piperidine-1-carbonyl)pyrazolo[1,5-a]pyridin-7-yl)pyridin-2-yl)methanone]: the pIC50 in assay [1] was ≥ 7.00. For the same compound, the fold induction at 1 µM in assay [2] was < 1.5.

On to `O=C(O)c1ncc(-c2cccc3c(C(=O)N4CCCCC4)cnn23)cc1F` [Example 243, 3-fluoro-5-[3-(piperidine-1-carbonyl)pyrazolo[1,5-a]pyridin-7-yl]pyridine-2-carboxylic acid], for which the negative-log IC50 (pIC50) in assay [1] was ≥ 7.00. Also, in assay [2], the fold induction at 1 µM was > 1.5.

For `Nc1cncc(-c2cccc3c(C(=O)N4CCCCC4)cnn23)c1` [Example 9, (7-(5-aminopyridin-3-yl)pyrazolo[1,5-a]pyridin-3-yl)(piperidin-1-yl)methanone], the pIC50 in assay [1] was ≥ 7.00. Moreover, in assay [2], the fold induction at 1 µM is > 1.5.

As for `O=C(NCc1ccon1)c1cncc(-c2cccc3c(C(=O)N4CCCCC4)cnn23)c1` [Example 55, N-(isoxazol-3-ylmethyl)-5-(3-(piperidine-1-carbonyl)pyrazolo[1,5-a]pyridin-7-yl)nicotinamide], in assay [1], the pIC50 is ≥ 7.00. Also, the fold induction at 1 µM in assay [2] was > 1.5.

As for `CN(C)CCNC(=O)c1ccc(-c2cccc3c(C(=O)N4CCCCC4)cnn23)cc1` [Example 63, N-(2-(dimethylamino)ethyl)-4-(3-(piperidine-1-carbonyl)pyrazolo[1,5-a]pyridin-7-yl)benzamide], the pIC50 in assay [1] was ≥ 7.00. Besides, the fold induction at 1 µM in assay [2] was > 1.5.

Values taken from patent EP4653437A2 (Innovo Therapeutics Inc., priority 2023, dated 2024).
